According to ChEMBL document CHEMBL1145464, “Modeling the combination of amphotericin B, micafungin, and nikkomycin Z against Aspergillus fumigatus in vitro using a novel response surface paradigm” (2007):
Converted amounts (≈) assume the structure as drawn. *1 amine or outer side, *2 acyl side, *3 side chain or, on linkers, in order; H or OH if unused. Where a SMILES comes first, the peptide text is derived from it. Bridges are numbered along the chain shown (N, C = ends). [ ]: non-standard residue; d: D form. The star is where a group is joined. hTyr(3S-OH,4S-OH,3'-OSO3H) = N[C@H](C(=O)O)[C@H](O)[C@@H](O)c1ccc(O)c(OS(=O)(=O)O)c1; Orn(4R-OH,5R-OH) = O=C([C@H](C[C@@H](O)[C@@H](O)N[*:3])N[*:1])[*:2]; Pro(3S-OH,4S-Me) = C[C@H]1CN[C@H](C(=O)O)[C@H]1O; X1 = CCCCCOc1ccc(-c2cc(-c3ccc(C(=O)*)cc3)no2)cc1; Gln(3R-OH) = NC(=O)C[C@@H](O)[C@H](N)C(=O)O; Hyp = O=C(O)[C@@H]1C[C@@H](O)CN1

Columns and labels:
Aspergillus fumigatus [1] = assay: Antifungal activity against Aspergillus fumigatus isolate after 24 hrs by CLSI method
Aspergillus fumigatus [2] = assay: Antifungal activity against Aspergillus fumigatus isolate after 48 hrs by CLSI method

Compound	MIC (Aspergillus fumigatus [1])	MIC (Aspergillus fumigatus [2])
C[C@@H]1[C@H](O)[C@@H](C)/C=C/C=C/C=C/C=C/C=C/C=C/C=C/[C@H](O[C@@H]2O[C@H](C)[C@@H](O)[C@H](N)[C@@H]2O)C[C@@H]2O[C@](O)(C[C@@H](O)C[C@@H](O)[C@H](O)CC[C@@H](O)C[C@@H](O)CC(=O)O[C@H]1C)C[C@H](O)[C@H]2C(=O)O (stereo in doubt) [AMPHOTERICIN B]	0.5 µg/mL (≈ 0.541 µM)	0.5 µg/mL (≈ 0.541 µM)
CCCCCOc1ccc(-c2cc(-c3ccc(C(=O)N[C@H]4C[C@@H](O)[C@@H](O)NC(=O)[C@@H]5[C@@H](O)[C@@H](C)CN5C(=O)[C@H]([C@H](O)CC(N)=O)NC(=O)[C@H]([C@H](O)[C@@H](O)c5ccc(O)c(OS(=O)(=O)O)c5)NC(=O)[C@@H]5C[C@@H](O)CN5C(=O)[C@H]([C@@H](C)O)NC4=O)cc3)no2)cc1 [MICAFUNGIN] (X1-[Orn(4R-OH,5R-OH)]T[Hyp][hTyr(3S-OH,4S-OH,3'-OSO3H)][Gln(3R-OH)][Pro(3S-OH,4S-Me)]; lactam 1-C)	≤ 0.03 µg/mL	≤ 0.03 µg/mL
C[C@@H]([C@H](N)C(=O)N[C@H](C(=O)O)[C@H]1O[C@@H](n2ccc(=O)[nH]c2=O)[C@H](O)[C@@H]1O)[C@H](O)c1ccc(O)cn1 [NIKKOMYCIN]	64 µg/mL (≈ 129 µM)	128 µg/mL (≈ 258 µM)
